The record followed here is patent US9562012B2, “PPAR-sparing compounds for the treatment of metabolic diseases” (Metabolic Solutions Development Company, LLC, priority 2013, dated 2017).

Molecules are shown by their SMILES. Where a name gives a salt, the structure may show the parent alone.

Test [1] addresses human PPARγ ligand binding domain (LBD) (Homo sapiens (Human), UniProt P37231). Description: TR-FRET PPARγ competitive binding assay (Invitrogen LanthaScreen). The procedure: The assays are conducted by first evaluation of the direct interactions of the molecules with the ligand binding domain of PPARγ. […] PPARγ binding is measured by a TR-FRET competitive binding assay using Invitrogen LanthaScreen™ TR-FRET PPARγ Competitive Binding Assay (Invitrogen #4894). This assay uses a terbium-labeled anti-GST antibody to label the GST tagged human PPARγ ligand binding domain (LBD). A fluorescent small molecule pan-PPAR ligand tracer binds to the LBD causing energy transfer from the antibody to the ligand resulting in a high TR-FRET ratio. […] The TR-FRET ratio is determined by reading the fluorescence emission at 490 and 520 nm using a Synergy2 plate reader (BioTek). The ability of compounds of the present invention to bind to PPARγ may also be measured using a commercial binding assay (Invitrogen Corporation, Carlsbad, Calif.) that measures the test compounds ability to bind with PPAR-LBD/Fluormone PPAR Green complex. These assays are performed on three occasions with each assay using duplicate wells at each concentration of tested compound. The data are mean and SEM of the values obtained from the three experiments. […] Compounds were added at the concentrations shown, which ranged from 0.1-100 micromolar.

Test [2] concerns diabetic KKAy mice. Description: Glucose, insulin and triglyceride in diabetic KKAy mice. It counts as in vivo. The settings on record: orally dosed 93 mg/kg for 4 days, T/C normalized to vehicle activity. On the procedure: The insulin sensitizing and antidiabetic pharmacology are measured in the KKA^Y mice as previously reported [Hofmann, C., Lomez, K., and Colca, J. R. (1991). Glucose transport deficiency corrected by treatment with the oral anti-hyperglycemic agent Pioglitazone. Endocrinology, 129:1915-1925.]. Compounds are formulated in 1% sodium carboxy methylcellulose, and 0.01% tween 20 and dosed daily by oral gavage. […] Compounds were formulated by suspension and orally dosed to KKA^Y mice at 93 mg/kg for 4 days. The compounds were first dissolved in DMSO and then placed into aqueous suspension containing 7-10% DMSO, 1% sodium methylcarboxycellulose, and 0.01% Tween 20. On the fifth day, the mice were fasted and blood samples were obtained approximately 18 hours after the last dose. The parameters were measured by standard assay methods. Data are mean and SEM N=6-12 mice.

Sequence of human PPARγ ligand binding domain (LBD) (P37231 238-503): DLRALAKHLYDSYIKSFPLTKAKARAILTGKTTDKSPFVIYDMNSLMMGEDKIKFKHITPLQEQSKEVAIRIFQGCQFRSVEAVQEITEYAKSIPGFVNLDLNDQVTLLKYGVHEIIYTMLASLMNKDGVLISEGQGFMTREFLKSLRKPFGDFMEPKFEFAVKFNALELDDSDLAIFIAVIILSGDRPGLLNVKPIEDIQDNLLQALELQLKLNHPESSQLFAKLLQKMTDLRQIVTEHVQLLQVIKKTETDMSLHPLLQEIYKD

Regarding `CCO[C@@H](Cc1ccc(OCCc2ccc(OS(C)(=O)=O)cc2)cc1)C(=O)N(C)OC` [Compound 21], in test [1], the IC50 amounted to 3.7 µM.

Turning to `CCO[C@@H](Cc1ccc(OCc2ccccn2)cc1)C(=O)NO` [Compound 1, (2S)-2-ethoxy-N-hydroxy-3-[4-(pyridin-2-ylmethoxy)phenyl]propanamide hydrogen chloride], the IC50 in test [1] is 58.9 µM.

Regarding `CCO[C@H](Cc1ccc(OCC(=O)c2cccc(OC)c2)cc1)C(=O)N(C)OC` [Compound 11, (2R)-2-ethoxy-N-methoxy-3-{4-[2-(3-methoxyphenyl)-2-oxoethoxy]phenyl}-N-methylpropanamide], in test [1], the half-maximal inhibitory concentration (IC50) came to 30.5 µM.

On to `CCO[C@@H](Cc1ccc(OCc2cc(OC)ccn2)cc1)C(=O)N(C)OC` [Compound 4, (2S)-2-ethoxy-N-methoxy-3-{4-[(4-methoxypyridin-2-yl)methoxy]phenyl}-N-methylpropanamide], for which, in test [1], the concentration for half-maximal inhibition (IC50) was found to be 27.7 µM.

Regarding `CCO[C@@H](Cc1ccc(OCc2cccc(I)c2)cc1)C(=O)NO` [Compound 7, (2S)-2-ethoxy-N-hydroxy-3-{4-[(3-iodobenzyl)oxy]phenyl}propanamide], the 50% inhibitory concentration (IC50) in test [1] was 11.8 µM.

With `CCO[C@@H](Cc1ccc(OC[C@@H](O)c2cccc(OC)c2)cc1)C(=O)NOC` [Compound 12, (2S)-2-ethoxy-3-{4-[(2S)-2-hydroxy-2-(3-methoxyphenyl)ethoxy]phenyl}-N-methoxypropanamide], the IC50 in test [1] is 164 µM. Also, the “Gluclose (mean T/C)” value in test [2] was 0.49.

For `CCO[C@@H](Cc1ccc(OC[C@H](O)c2cccc(OC)c2)cc1)C(=O)N(C)OC` [Compound 16, (2S)-2-Ethoxy-3-{4-[(2R)-2-hydroxy-2-(3-methoxyphenyl)ethoxy]phenyl}-N-methoxy-N-methylpropanamide], the IC50 in test [1] stood at 191 µM.

Turning to `CCO[C@@H](Cc1ccc(OCCc2ccc(OS(C)(=O)=O)cc2)cc1)C(=O)N(C)O` [Compound 20], the 50% inhibitory concentration (IC50) in test [1] was 10.9 µM.

For `CCO[C@@H](Cc1ccc(OC[C@@H](O)c2cccc(OC)c2)cc1)C(=O)N(C)OC` [Compound 17], the IC50 in test [1] was 27.7 µM.

For the compound `CCO[C@@H](Cc1ccc(OCc2cc(OC)ccn2)cc1)C(=O)N(C)O.Cl` [Compound 6, (2S)-2-ethoxy-N-hydroxy-3-{4-[(4-methoxypyridin-2-yl)methoxy]phenyl}-N-methylpropanamide hydrochloride], the half-maximal inhibitory concentration (IC50) in test [1] was over 195 µM. Further, the “Gluclose (mean T/C)” value in test [2] came out at 0.55.

As to `CCO[C@@H](Cc1ccc(OCc2ccc(S(C)(=O)=O)cc2)cc1)C(=O)NOC` [Compound 9, (2S)-2-ethoxy-N-methoxy-3-(4-{[4-(methylsulfonyl)benzyl]oxy}phenyl) propanamide], the IC50 in test [1] was over 250 µM.

In the case of `CCO[C@H](Cc1ccc(OC[C@H](O)c2cccc(OC)c2)cc1)C(=O)NOC` [Compound 19, (2R)-2-ethoxy-3-{4-[(2R)-2-hydroxy-2-(3-methoxyphenyl)ethoxy]phenyl}-N-methoxypropanamide], the half-inhibitory concentration (IC50) in test [1] is over 250 µM.

Take `CCO[C@@H](Cc1ccc(OCc2cc(OC)ccn2)cc1)C(=O)NOC.Cl` [Compound 5, (2S)-2-ethoxy-N-methoxy-3-{4-[(4-methoxypyridin-2-yl)methoxy]phenyl}propanamide hydrochloride]: the half-maximal inhibitory concentration (IC50) in test [1] was over 250 µM. Further, in test [2], the “Gluclose (mean T/C)” value was 0.97.

With `CCO[C@@H](Cc1ccc(OCCc2ccc(OS(C)(=O)=O)cc2)cc1)C(=O)NOC` [Compound 10], the IC50 in test [1] stood at 7.9 µM.

As to `CCO[C@@H](Cc1ccc(OCC(=O)c2cccc(OC)c2)cc1)C(=O)N(C)OC` [Compound 14, (2S)-2-ethoxy-N-methoxy-3-{4-[2-(3-methoxyphenyl)-2-oxoethoxy]phenyl}-N-methylpropanamide], in test [1], the half-maximal inhibitory concentration (IC50) is over 250 µM. For the same compound, the “Gluclose (mean T/C)” value in test [2] stood at 0.76.

Take `CCO[C@H](Cc1ccc(OC[C@@H](O)c2cccc(OC)c2)cc1)C(=O)NO` [Compound 2, (2R)-2-ethoxy-N-hydroxy-3-{4-[(2S)-2-hydroxy-2-(3-methoxyphenyl)ethoxy]phenyl}propanamide]: the IC50 in test [1] was over 100 µM.

`CCO[C@@H](Cc1ccc(OCC(=O)c2cccc(OC)c2)cc1)C(=O)NOC` [Compound 13, (2S)-2-ethoxy-N-methoxy-3-{4-[2-(3-methoxyphenyl)-2-oxoethoxy]phenyl}Propanamide]: the IC50 in test [1] worked out at 61.4 µM. Besides, in test [2], the “Gluclose (mean T/C)” value is given as 0.59.

Take `CCO[C@H](Cc1ccc(OCC(=O)c2cccc(OC)c2)cc1)C(=O)NOC` [Compound 8, (2R)-2-ethoxy-N-methoxy-3-{4-[2-(3-methoxyphenyl)-2-oxoethoxy]phenyl}propanamide]: the IC50 in test [1] amounted to 98.5 µM.

Turning to `CCO[C@H](Cc1ccc(OC[C@@H](O)c2cccc(OC)c2)cc1)C(=O)NOC` [Compound 18, (2R)-2-ethoxy-3-{4-[(2S)-2-hydroxy-2-(3-methoxyphenyl)ethoxy]phenyl}-N-methoxypropanamide], the 50% inhibitory concentration (IC50) in test [1] is over 250 µM.

`CCO[C@@H](Cc1ccc(OCc2cc(OC)ccn2)cc1)C(=O)NO` [Compound 3, (2S)-2-ethoxy-N-hydroxy-3-{4-[(4-methoxypyridin-2-yl)methoxy]phenyl}propanamide hydrochloride]: the half-maximal inhibitory concentration (IC50) in test [1] was over 250 µM.

`CCO[C@@H](Cc1ccc(OC[C@H](O)c2cccc(OC)c2)cc1)C(=O)NOC` [Compound 15, (2S)-2-ethoxy-3-{4-[(2R)-2-hydroxy-2-(3-methoxyphenyl)ethoxy]phenyl}-N-methoxypropanamide]: the IC50 in test [1] is over 200 µM.
